Reference: the supplement of paper PMC10307832

Key:
Assay in all cases: relative viability (nuclei count vs DMSO), 5 days (fraction); higher = more cells survive
[1] = system: BEN
Summary of the method: (§1)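 Lung cancer cell lines were pin-tool dosed in 1536-well plates on the day after seeding, with either a lone drug or a fixed anchor-drug dose plus five library-drug doses (not always all listed) in √10 steps. Nuclei were counted on 4× images after 5 days. Relative viability is the ratio of treated-well to vehicle-well nuclei counts, with each value a median of duplicate plates.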

[2] = system: EPLC-272H
Summary of the method: as §1

[3] = system: HCC-827
Summary of the method: as §1

[4] = system: HOP-62
Summary of the method: as §1

[5] = system: LU99A
Summary of the method: as §1

[6] = system: LXF-289
Summary of the method: as §1

[7] = system: NCI-H1437
Summary of the method: as §1

[8] = system: NCI-H1666
Summary of the method: as §1

[9] = system: NCI-H1915
Summary of the method: as §1

[10] = system: NCI-H2170
Summary of the method: as §1

[11] = system: NCI-H2228
Summary of the method: as §1

[12] = system: NCI-H2342
Summary of the method: as §1

[13] = system: NCI-H2347
Summary of the method: as §1

[14] = system: NCI-H23
Summary of the method: as §1

[15] = system: NCI-H322M
Summary of the method: as §1

[16] = system: NCI-H358
Summary of the method: as §1

[17] = system: NCI-H441
Summary of the method: as §1

[18] = system: NCI-H522
Summary of the method: as §1

[19] = system: NCI-H647
Summary of the method: as §1

[20] = system: NCI-H650
Summary of the method: as §1

[21] = system: NCI-H727
Summary of the method: as §1

[22] = system: SK-MES-1
Summary of the method: as §1

[23] = system: SW 1573
Summary of the method: as §1

C=C1C(=O)O[C@@H](CCCCCCCC)[C@@H]1C(=O)O [C-75] + Cc1nc(Nc2ncc(C(=O)Nc3c(C)cccc3Cl)s2)cc(N2CCN(CCO)CC2)n1 [Dasatinib] (partner 0.075 µM)
relative viability ([1]; first compound 0.08 µM): 0.317
relative viability ([1]; first compound 0.253 µM): 0.271
relative viability ([1]; first compound 0.8 µM): 0.326
relative viability ([1]; first compound 8 µM): 0.288
relative viability ([2]; first compound 0.08 µM): 0.412
relative viability ([2]; first compound 0.253 µM): 0.292
relative viability ([2]; first compound 0.8 µM): 0.351
relative viability ([2]; first compound 2.53 µM): 0.33
relative viability ([2]; first compound 8 µM): 0.381
relative viability ([3]; first compound 0.08 µM): 0.28
relative viability ([3]; first compound 0.253 µM): 0.356
relative viability ([3]; first compound 0.8 µM): 0.301
relative viability ([3]; first compound 2.53 µM): 0.221
relative viability ([3]; first compound 8 µM): 0.347
relative viability ([4]; first compound 0.08 µM): 0.642
relative viability ([4]; first compound 0.253 µM): 0.499
relative viability ([4]; first compound 0.8 µM): 0.6
relative viability ([4]; first compound 2.53 µM): 0.603
relative viability ([4]; first compound 8 µM): 0.666
relative viability ([5]; first compound 0.08 µM): 0.597
relative viability ([5]; first compound 0.253 µM): 0.558
relative viability ([5]; first compound 0.8 µM): 0.549
relative viability ([5]; first compound 2.53 µM): 0.495
relative viability ([5]; first compound 8 µM): 0.38
relative viability ([6]; first compound 0.08 µM): 0.22
relative viability ([6]; first compound 0.253 µM): 0.137
relative viability ([6]; first compound 0.8 µM): 0.26
relative viability ([6]; first compound 2.53 µM): 0.163
relative viability ([6]; first compound 8 µM): 0.22
relative viability ([7]; first compound 0.08 µM): 0.4
relative viability ([7]; first compound 0.253 µM): 0.381
relative viability ([7]; first compound 0.8 µM): 0.367
relative viability ([7]; first compound 2.53 µM): 0.298
relative viability ([7]; first compound 8 µM): 0.458
relative viability ([8]; first compound 0.08 µM): 0.836
relative viability ([8]; first compound 0.253 µM): 0.779
relative viability ([8]; first compound 0.8 µM): 0.74
relative viability ([8]; first compound 2.53 µM): 0.719
relative viability ([8]; first compound 8 µM): 0.711
relative viability ([9]; first compound 0.08 µM): 0.343
relative viability ([9]; first compound 0.253 µM): 0.304
relative viability ([9]; first compound 0.8 µM): 0.311
relative viability ([9]; first compound 2.53 µM): 0.289
relative viability ([9]; first compound 8 µM): 0.383
relative viability ([10]; first compound 0.08 µM): 0.692
relative viability ([10]; first compound 0.253 µM): 0.552
relative viability ([10]; first compound 0.8 µM): 0.552
relative viability ([10]; first compound 2.53 µM): 0.476
relative viability ([10]; first compound 8 µM): 0.522
relative viability ([11]; first compound 0.08 µM): 0.613
relative viability ([11]; first compound 0.253 µM): 0.627
relative viability ([11]; first compound 0.8 µM): 0.524
relative viability ([11]; first compound 2.53 µM): 0.394
relative viability ([11]; first compound 8 µM): 0.396
relative viability ([12]; first compound 0.08 µM): 0.3
relative viability ([12]; first compound 0.253 µM): 0.314
relative viability ([12]; first compound 0.8 µM): 0.301
relative viability ([12]; first compound 2.53 µM): 0.327
relative viability ([12]; first compound 8 µM): 0.316
relative viability ([13]; first compound 0.08 µM): 0.367
relative viability ([13]; first compound 0.253 µM): 0.448
relative viability ([13]; first compound 0.8 µM): 0.25
relative viability ([13]; first compound 8 µM): 0.32
relative viability ([14]; first compound 0.08 µM): 0.81
relative viability ([14]; first compound 0.253 µM): 0.756
relative viability ([14]; first compound 0.8 µM): 0.718
relative viability ([14]; first compound 2.53 µM): 0.443
relative viability ([14]; first compound 8 µM): 0.586
relative viability ([15]; first compound 0.08 µM): 0.241
relative viability ([15]; first compound 0.253 µM): 0.244
relative viability ([15]; first compound 0.8 µM): 0.272
relative viability ([15]; first compound 2.53 µM): 0.198
relative viability ([15]; first compound 8 µM): 0.313
relative viability ([16]; first compound 0.08 µM): 0.181
relative viability ([16]; first compound 0.253 µM): 0.13
relative viability ([16]; first compound 0.8 µM): 0.157
relative viability ([16]; first compound 2.53 µM): 0.151
relative viability ([16]; first compound 8 µM): 0.143
relative viability ([17]; first compound 0.08 µM): 0.545
relative viability ([17]; first compound 0.253 µM): 0.916
relative viability ([17]; first compound 0.8 µM): 0.723
relative viability ([17]; first compound 2.53 µM): 0.463
relative viability ([17]; first compound 8 µM): 0.594
relative viability ([18]; first compound 0.08 µM): 0.867
relative viability ([18]; first compound 0.253 µM): 0.849
relative viability ([18]; first compound 0.8 µM): 0.784
relative viability ([18]; first compound 8 µM): 0.906
relative viability ([19]; first compound 0.08 µM): 0.227
relative viability ([19]; first compound 0.253 µM): 0.114
relative viability ([19]; first compound 0.8 µM): 0.172
relative viability ([19]; first compound 2.53 µM): 0.143
relative viability ([19]; first compound 8 µM): 0.219
relative viability ([20]; first compound 0.08 µM): 0.469
relative viability ([20]; first compound 0.253 µM): 0.328
relative viability ([20]; first compound 0.8 µM): 0.383
relative viability ([20]; first compound 2.53 µM): 0.358
relative viability ([20]; first compound 8 µM): 0.398
relative viability ([21]; first compound 0.08 µM): 0.406
relative viability ([21]; first compound 0.253 µM): 0.494
relative viability ([21]; first compound 0.8 µM): 0.417
relative viability ([21]; first compound 8 µM): 0.305
relative viability ([22]; first compound 0.08 µM): 0.357
relative viability ([22]; first compound 0.253 µM): 0.286
relative viability ([22]; first compound 0.8 µM): 0.319
relative viability ([22]; first compound 2.53 µM): 0.332
relative viability ([22]; first compound 8 µM): 0.336
relative viability ([23]; first compound 0.08 µM): 0.632
relative viability ([23]; first compound 0.253 µM): 0.476
relative viability ([23]; first compound 0.8 µM): 0.291
relative viability ([23]; first compound 2.53 µM): 0.46
relative viability ([23]; first compound 8 µM): 0.295
